Measurements as given in US9273364B2 (Kyoto University, priority 2010, dated 2016).
Where a name gives a salt, the structure may show the parent alone.

What follows are compounds tested on alternative splicing of a specific gene (GFP/RFP reporter) (assay: Compound screen with GFP/RFP alternative splicing reporter). Conditions: not given.
Assay type: cell-based
Description: Strategy of a method for testing whether or not a compound to be tested affects an alternative splicing of a specific gene in a mammalian multicelluar organism is shown in FIG. 14.
The reporter proteins used for the method are GFP and FRP.

Row | SMILES | Number of cells | cell count per well (c9; column head not printed in these continuation tables, meaning inferred) | reporter fluorescence ratio, GFP/RFP (c11; column head not printed in these continuation tables, table sorted descending by it)
1 | C#C[C@]1(O)CC[C@H]2[C@@H]3CCC4=CC(=O)CC[C@@H]4[C@H]3CC[C@@]21C (racemic) [Norethindrone] | 3205 | – | –
2 | CC1=C(/C=C/C(C)=C/C=C/C(C)=C/C(=O)O)C(C)(C)CCC1 [Retinoic acid] | 2697 | – | –
3 | COc1cc2c(cc1OC)-c1c/c(=N\c3c(C)cc(C)cc3C)n(C)c(=O)n1CC2 [Trequinsin] | 3009 | – | –
4 | NC1CCN(c2nc3c(cc2F)c(=O)c(C(=O)O)cn3-c2ccc(F)cc2F)C1 (racemic) [Tosufloxacin] | 2590 | – | –
5 | O=P1(N(CCCl)CCCl)NCCCO1 (stereo not shown) [Cyclophosphamide monohydrate] | – | 3065 | –
6 | Cl.Cl.O=C1c2c(O)ccc(O)c2C(=O)c2c(NCCNCCO)ccc(NCCNCCO)c21 [Mitoxantrone 2HCl] | 31 | – | –
7 | Cc1ccc(-c2cc(C(F)(F)F)nn2-c2ccc(S(N)(=O)=O)cc2)cc1 (racemic) [Celecoxib] | 3060 | – | –
8 | CCc1nn(CCCN2CCN(c3cccc(Cl)c3)CC2)c(=O)n1CCOc1ccccc1 (racemic) [Nefazodone] | 2966 | – | –
9 | CCC(NC(C)C)C(O)c1ccc(O)c2[nH]c(=O)ccc12 (stereo not shown) [Procaterol hcl] | 4151 | – | –
10 | C[C@@H](O[C@H]1OCCN(Cc2n[nH]c(=O)[nH]2)[C@H]1c1ccc(F)cc1)c1cc(C(F)(F)F)cc(C(F)(F)F)c1 (racemic) [Aprepitant] | 2165 | – | –
11 | CC1(C)S[C@@H]2[C@H](NC(=O)COc3ccccc3)C(=O)N2[C@H]1C(=O)[O-].[K+] [Pencillin v potassium] | – | – | 1.134
12 | C[C@]12CCC(=O)C=C1CC[C@@H]1[C@@H]2[C@@H](O)C[C@@]2(C)[C@H]1CC[C@]2(O)C(=O)CO (racemic) [Hydrocortisone] | 3105 | – | –
13 | CCOC(=O)[C@H](CCc1ccccc1)N[C@@H](C)C(=O)N1Cc2ccccc2C[C@H]1C(=O)O (racemic) [Quinapril HCl] | 3149 | – | –
14 | CC1(C)C[C@@H]1C(=O)N/C(=C\CCCCSC[C@H](N)C(=O)O)C(=O)O [Cilastatin] | – | 2885 | –

Continued, in another order:

Row | Number of cells | SMILES | cell count per well (c9; column head not printed in these continuation tables, meaning inferred) | reporter fluorescence ratio, GFP/RFP (c11; column head not printed in these continuation tables, table sorted descending by it)
15 | 2356 | Cc1cn([C@H]2C[C@H](N=[N+]=[N-])[C@@H](CO)O2)c(=O)[nH]c1=O (racemic) [3′-azido-3′-deoxythymidine] | – | –
16 | 3470 | C[C@@](Cc1ccc(O)c(O)c1)(NN)C(=O)O [Carbidopa] | – | –
17 | 3042 | CCCc1nc2c(C)cc(-c3nc4ccccc4n3C)cc2n1Cc1ccc(-c2ccccc2C(=O)O)cc1 (racemic) [Telmisartan] | – | –
18 | 3625 | Cc1cc2c(OCC(CNC(C)(C)C)OC(=O)c3ccccc3)cccc2[nH]1.O=C(O)CC(=O)O (stereo not shown) [Bopindolol malonate] | – | –

Same assay, conditions: 50 ng/mL

Row | SMILES | Number of cells
19 | Cc1coc2c1C(=O)C(=O)c1c-2ccc2c1CCCC2(C)C [Tanshinone iia] | 2210
20 | N=c1ccn2c(n1)O[C@H]1[C@H](O)[C@@H](CO)O[C@H]12 (racemic) [Cyclocytidine HCl] | 73
21 | C[C@H]1C[C@@H]2[C@H]([C@@H](O)C[C@@]3(C)[C@H]2CC[C@]3(O)C(=O)CO)[C@@]2(C)C=CC(=O)C=C12 (racemic) [Methylprednisolone] | 3084
22 | CCN(CC)C(=S)SSC(=S)N(CC)CC (racemic) [Disulfiram] | 31
23 | CC[C@@]1(O)C(=O)OCc2c1cc1n(c2=O)Cc2cc3c(CN(C)C)c(O)ccc3nc2-1 (racemic) [Topotecan] | 259
24 | CC(C)(C)NCC(O)c1ccccc1Cl (racemic) [Tulobuterol] | 3489
25 | Clc1ccc(C(Cn2ccnc2)OCc2csc3c(Cl)cccc23)c(Cl)c1 (racemic) [Sertaconazole] | 1863
26 | COc1ccc(CC2c3cc(OC)c(OC)cc3CC[N+]2(C)CCC(=O)OCCCCCOC(=O)CC[N+]2(C)CCc3cc(OC)c(OC)cc3C2Cc2ccc(OC)c(OC)c2)cc1OC (racemic) [Atracurium besylate] | 3056
27 | CCCCC(C)(O)C/C=C/[C@H]1[C@H](O)CC(=O)[C@@H]1CCCCCCC(=O)OC (mixture of isomers) [Misoprostol] | 3052
28 | O=C(NC(Cc1cc(=O)[nH]c2ccccc12)C(=O)O)c1ccc(Cl)cc1 (racemic) [Rebamipide] | 2922
29 | CC(C(=O)O)c1ccc2c(c1)Cc1cccnc1O2 (racemic) [Pranoprofen] | 3050
30 | CN1CCCN=C1/C=C/c1cccs1 (racemic) [Pyrantel pamoate] | 2985
31 | Nc1ccn([C@@H]2O[C@H](CO)[C@@H](O)[C@@H]2O)c(=O)n1 (racemic) [Cytarabine] | 48
32 | c1ccc(-c2ccc(C(c3ccccc3)n3ccnc3)cc2)cc1 (racemic) [Bifonazole] | 921
33 | N=C(N)c1ccc(OCCCCCOc2ccc(C(=N)N)cc2)cc1 [Pentamidine] | 2694
34 | Nc1nc(Cl)nc2c1ncn2[C@@H]1O[C@H](CO)[C@@H](O)[C@@H]1F (racemic) [Clofarabine] | 19

Continued, values first:

Row | Number of cells | SMILES
35 | 74 | CC(C)C[C@H](NC(=O)[C@H](Cc1ccccc1)NC(=O)c1cnccn1)B(O)O (racemic) [Bortezomib]
36 | 3112 | COc1cc2nc(N3CCN(C(=O)C4CCCO4)CC3)nc(N)c2cc1OC (racemic) [Terazosin HCl]
37 | 246 | C[C@H]1[C@H](OC(=O)CCC(=O)O)O[C@@H]2O[C@@]3(C)CC[C@H]4[C@H](C)CC[C@@H]1[C@@]24OO3 [Artesunate]
38 | 142 | O=c1[nH]c(=O)n([C@H]2C[C@H](O)[C@@H](CO)O2)cc1F (racemic) [Floxuridine]
39 | 156 | Nc1ccn([C@@H]2O[C@H](CO)[C@@H](O)C2(F)F)c(=O)n1 (racemic) [Gemcitabine HCl]
40 | 278 | COC(=O)Nc1nc2ccc(Sc3ccccc3)cc2[nH]1 (racemic) [Fenbendazole]
41 | 850 | Clc1ccc(C(Cn2ccnc2)OCc2ccsc2Cl)c(Cl)c1 (racemic) [Tioconazole]
42 | 1963 | Cc1oncc1C(=O)Nc1ccc(C(F)(F)F)cc1 (racemic) [Leflunomide]
43 | 3029 | C[C@@H]1CN(c2c(F)c(N)c3c(=O)c(C(=O)O)cn(C4CC4)c3c2F)C[C@H](C)N1 [Sparfloxacin]
44 | 2916 | CN1C(C(=O)Nc2ccccn2)=C(O)c2sccc2S1(=O)=O (racemic) [Tenoxicam]
45 | 34 | CC(=O)[C@]1(O)Cc2c(O)c3c(c(O)c2[C@@H](O[C@H]2C[C@H](N)[C@H](O)[C@H](C)O2)C1)C(=O)c1ccccc1C3=O (racemic) [Idarubicin]

Same assay, conditions: cell count after compound at final conc.; Ctrl number of cells 4303-5627

Row | Number of cells | SMILES
46 | 3230 | Cc1nc(C)c(Cl)c(O)c1Cl (racemic) [Clopidol]
47 | 2744 | COc1cc(-c2ccc(=O)[nH]n2)ccc1OC(F)F [Zardaverine]
48 | 3112 | COc1ccnc(C[S+]([O-])c2nc3ccc(OC(F)F)cc3[nH]2)c1OC (racemic) [Pantoprazole]

Row | SMILES | Number of cells
49 | N[C@@H](Cc1ccc(N(CCCl)CCCl)cc1)C(=O)O (racemic) [Melphalan] | 483
50 | CCC[S+]([O-])c1ccc2[nH]c(NC(=O)OC)nc2c1 (racemic) [Ricobendazole] | 1381

Same assay, conditions: reporter ratio relative to control = 1; final conc. per compound (μM, 50 ng/mL)

Row | SMILES | GFP/RFP (Ctrl = 1)
51 | Cl.Cl.O=C1c2c(O)ccc(O)c2C(=O)c2c(NCCNCCO)ccc(NCCNCCO)c21 [Mitoxantrone 2HCl] | 2.651
52 | Cc1cc2c(OCC(CNC(C)(C)C)OC(=O)c3ccccc3)cccc2[nH]1.O=C(O)CC(=O)O (stereo not shown) [Bopindolol malonate] | 1.265
